Results published in ChEMBL document CHEMBL1201862, “PubChem BioAssay data set” (2004).
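These data come from cells grown in 96-well plates and exposed to compound for 48 hours at five concentrations. GI50 = concentration required for 50% inhibition of growth.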 Active and inactive are the calls of the source. Cut-off read from the data, not from the text of the source: active = GI50 up to about 1.1 µM and inactive = higher.

Assays:
Assay in all cases: NCI tumour cell line growth inhibition, 48 h
Hs-578T = test system: Hs-578T
HOP-92 = test system: HOP-92
IGROV-1 = test system: IGROV-1
RPMI-8226 = test system: RPMI-8226
NCI-H23 = test system: NCI-H23
TK-10 = test system: TK-10
SK-MEL-28 = test system: SK-MEL-28
NCI/ADR-RES = test system: NCI/ADR-RES
BT-549 = test system: BT-549
NCI-H226 = test system: NCI-H226
UO-31 = test system: UO-31
K562 = test system: K562
PC-3 = test system: PC-3
NCI-H522 = test system: NCI-H522
Malme-3M = test system: Malme-3M
NCI-H460 = test system: NCI-H460
SNB-19 = test system: SNB-19
EKVX = test system: EKVX
OVCAR-8 = test system: OVCAR-8
HCC 2998 = test system: HCC 2998
CAKI-1 = test system: CAKI-1
LOX IMVI = test system: LOX IMVI
T47D = test system: T47D
MDA-MB-435 = test system: MDA-MB-435
HOP-62 = test system: HOP-62
A549 = test system: A549
UACC-257 = test system: UACC-257
ACHN = test system: ACHN
MDA-N = test system: MDA-N
SF-295 = test system: SF-295
OVCAR-5 = test system: OVCAR-5
SK-MEL-2 = test system: SK-MEL-2
SK-OV-3 = test system: SK-OV-3
MCF7 = test system: MCF7
A498 = test system: A498
SNB-75 = test system: SNB-75
SK-MEL-5 = test system: SK-MEL-5
HL-60 = test system: HL-60
UACC-62 = test system: UACC-62
OVCAR-3 = test system: OVCAR-3
786-0 = test system: 786-0
KM12 = test system: KM12
SW-620 = test system: SW-620
RXF 393 = test system: RXF 393
SF-268 = test system: SF-268
HCT-116 = test system: HCT-116
DU-145 = test system: DU-145
MOLT-4 = test system: MOLT-4
CCRF-CEM = test system: CCRF-CEM
SN12C = test system: SN12C
U-251 = test system: U-251
M14 = test system: M14
COLO 205 = test system: COLO 205
HCT-15 = test system: HCT-15
OVCAR-4 = test system: OVCAR-4
HT-29 = test system: HT-29
SR = test system: SR
MDA-MB-231 = test system: MDA-MB-231
SF-539 = test system: SF-539

In the case of `COC(=O)[C@H](Cc1ccccc1)NC(=O)N1CCN(C(=O)N[C@@H](Cc2ccccc2)C(=O)OC)CCN(C(=O)N[C@@H](Cc2ccccc2)C(=O)OC)CC1`, the GI50 (Hs-578T) is reported as > 100 µM (inactive), the GI50 (HOP-92) is reported as > 100 µM (inactive) and the GI50 (IGROV-1) is reported as > 100 µM (inactive). For the same compound, the GI50 (RPMI-8226) was > 100 µM (inactive), the GI50 (NCI-H23) was > 100 µM (inactive) and the GI50 (TK-10) was > 100 µM (inactive). For the same compound, the GI50 (SK-MEL-28) was > 100 µM (inactive), the GI50 (NCI/ADR-RES) was > 100 µM (inactive) and the GI50 (BT-549) was > 100 µM (inactive). For the same compound, the GI50 (NCI-H226) was > 100 µM (inactive), the GI50 (UO-31) was > 100 µM (inactive) and the GI50 (K562) was > 100 µM (inactive). The GI50 (PC-3) was > 100 µM (inactive), the GI50 (NCI-H522) was > 100 µM (inactive) and the GI50 (Malme-3M) was > 100 µM (inactive). For the same compound, the GI50 (NCI-H460) was > 100 µM (inactive), the GI50 (SNB-19) was > 100 µM (inactive) and the GI50 (EKVX) was > 100 µM (inactive). For the same compound, the GI50 (OVCAR-8) was > 100 µM (inactive), the GI50 (HCC 2998) was > 100 µM (inactive) and the GI50 (CAKI-1) was > 100 µM (inactive). The GI50 (LOX IMVI) was > 100 µM (inactive), the GI50 (T47D) was > 100 µM (inactive) and the GI50 (MDA-MB-435) was > 100 µM (inactive). The GI50 (HOP-62) was > 100 µM (inactive), the GI50 (A549) was > 100 µM (inactive) and the GI50 (UACC-257) was > 100 µM (inactive). The GI50 (ACHN) was > 100 µM (inactive), the GI50 (MDA-N) was > 100 µM (inactive) and the GI50 (SF-295) was > 100 µM (inactive). The GI50 (OVCAR-5) was > 100 µM (inactive), the GI50 (SK-MEL-2) was > 100 µM (inactive) and the GI50 (SK-OV-3) was > 100 µM (inactive). For the same compound, the GI50 (MCF7) was > 100 µM (inactive), the GI50 (A498) was > 100 µM (inactive) and the GI50 (SNB-75) was > 100 µM (inactive). The GI50 (SK-MEL-5) was > 100 µM (inactive), the GI50 (HL-60) was > 100 µM (inactive) and the GI50 (UACC-62) was > 100 µM (inactive). For the same compound, the GI50 (OVCAR-3) was > 100 µM (inactive), the GI50 (786-0) was > 100 µM (inactive) and the GI50 (KM12) was > 100 µM (inactive). For the same compound, the GI50 (SW-620) was > 100 µM (inactive), the GI50 (RXF 393) was > 100 µM (inactive) and the GI50 (SF-268) was > 100 µM (inactive). For the same compound, the GI50 (HCT-116) was > 100 µM (inactive), the GI50 (DU-145) was > 100 µM (inactive) and the GI50 (MOLT-4) was > 100 µM (inactive). The GI50 (CCRF-CEM) was > 100 µM (inactive), the GI50 (SN12C) was > 100 µM (inactive) and the GI50 (U-251) was > 100 µM (inactive). For the same compound, the GI50 (M14) was > 100 µM (inactive), the GI50 (COLO 205) was > 100 µM (inactive) and the GI50 (HCT-15) was > 100 µM. The GI50 (OVCAR-4) was > 100 µM (inactive) and the GI50 (HT-29) was > 100 µM (inactive).
For `CCc1n[nH]c(=O)[nH]1`, the GI50 (Hs-578T) was > 100 µM (inactive), the GI50 (IGROV-1) was > 100 µM (inactive) and the GI50 (NCI-H23) was > 100 µM (inactive). The GI50 (TK-10) was > 100 µM (inactive), the GI50 (NCI/ADR-RES) was > 100 µM (inactive) and the GI50 (BT-549) was > 100 µM (inactive). For the same compound, the GI50 (UO-31) was > 100 µM (inactive), the GI50 (K562) was > 100 µM (inactive) and the GI50 (PC-3) was > 100 µM (inactive). The GI50 (NCI-H522) was > 100 µM (inactive), the GI50 (Malme-3M) was > 100 µM (inactive) and the GI50 (NCI-H460) was > 100 µM (inactive). For the same compound, the GI50 (SNB-19) was > 100 µM (inactive), the GI50 (SR) was > 100 µM (inactive) and the GI50 (EKVX) was > 100 µM (inactive). For the same compound, the GI50 (OVCAR-8) was > 100 µM (inactive), the GI50 (HCC 2998) was > 100 µM (inactive) and the GI50 (MDA-MB-231) was > 100 µM (inactive). For the same compound, the GI50 (CAKI-1) was > 100 µM (inactive), the GI50 (LOX IMVI) was > 100 µM (inactive) and the GI50 (T47D) was > 100 µM (inactive). For the same compound, the GI50 (MDA-MB-435) was > 100 µM (inactive), the GI50 (HOP-62) was > 100 µM (inactive) and the GI50 (A549) was > 100 µM (inactive). The GI50 (UACC-257) was > 100 µM (inactive), the GI50 (ACHN) was > 100 µM (inactive) and the GI50 (MDA-N) was > 100 µM (inactive). The GI50 (SF-295) was > 100 µM (inactive), the GI50 (OVCAR-5) was > 100 µM (inactive) and the GI50 (SK-MEL-2) was > 100 µM (inactive). For the same compound, the GI50 (SK-OV-3) was > 100 µM (inactive), the GI50 (MCF7) was > 100 µM (inactive) and the GI50 (SF-539) was > 100 µM (inactive). The GI50 (SNB-75) was > 100 µM (inactive), the GI50 (SK-MEL-5) was > 100 µM (inactive) and the GI50 (HL-60) was > 10 µM (inactive). The GI50 (UACC-62) was > 100 µM (inactive), the GI50 (OVCAR-3) was > 100 µM (inactive) and the GI50 (786-0) was > 100 µM (inactive). The GI50 (KM12) was > 100 µM (inactive), the GI50 (RXF 393) was > 100 µM (inactive) and the GI50 (SF-268) was > 100 µM (inactive). For the same compound, the GI50 (HCT-116) was > 100 µM (inactive), the GI50 (DU-145) was > 100 µM (inactive) and the GI50 (MOLT-4) was > 100 µM (inactive). For the same compound, the GI50 (CCRF-CEM) was > 100 µM (inactive), the GI50 (SN12C) was > 100 µM (inactive) and the GI50 (M14) was > 100 µM (inactive). The GI50 (COLO 205) was > 100 µM (inactive), the GI50 (HCT-15) was > 100 µM and the GI50 (HT-29) was > 100 µM (inactive).
